Reference: article PMC7658267, “Effects of CYP46A1 Inhibition on Long-Term-Depression in Hippocampal Slices ex vivo and 24S-Hydroxycholesterol Levels in Mice in vivo” (Frontiers in Molecular Neuroscience, 2020)

Key:
[1] = molecular target: T1, CYP46A1 (Homo sapiens, UniProt Q9Y6A2); experiment: recombinant human CYP46A1 microsomes, cholesterol to 24-hydroxycholesterol, LC-MS/MS ([…] with testosterone as substrate); assay type: biochemical
[2] = molecular target: T1, CYP46A1; experiment: turnover to 24-hydroxycholesterol by human CYP46A1 microsomes, LC-MS/MS; assay type: biochemical

T1 sequence (Q9Y6A2 whole entry): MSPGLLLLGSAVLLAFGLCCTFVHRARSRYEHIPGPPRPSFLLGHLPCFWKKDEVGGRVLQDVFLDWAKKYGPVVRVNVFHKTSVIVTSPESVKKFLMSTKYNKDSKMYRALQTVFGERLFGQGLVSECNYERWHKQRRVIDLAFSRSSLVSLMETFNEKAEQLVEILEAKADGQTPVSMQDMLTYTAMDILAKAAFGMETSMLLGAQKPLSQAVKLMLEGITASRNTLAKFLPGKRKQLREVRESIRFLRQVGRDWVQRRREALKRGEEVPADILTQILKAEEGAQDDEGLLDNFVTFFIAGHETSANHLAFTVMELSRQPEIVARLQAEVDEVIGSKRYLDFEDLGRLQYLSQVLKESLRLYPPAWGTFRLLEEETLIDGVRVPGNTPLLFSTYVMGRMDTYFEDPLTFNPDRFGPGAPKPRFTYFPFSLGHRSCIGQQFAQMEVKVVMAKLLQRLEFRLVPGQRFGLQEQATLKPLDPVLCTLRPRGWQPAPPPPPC

| SMILES | IC50 [1] [µM] | turnover to 24-hydroxycholesterol by human CYP46A1 microsomes, LC-MS/MS [2] |
| --- | --- | --- |
| C[C@@H](c1ncncc1F)[C@](O)(Cn1cncn1)c1ccc(F)cc1F [Voriconazole] | 12.2 | – |
| CC(C)CCC[C@@H](C)[C@H]1CC[C@H]2[C@@H]3CC=C4C[C@@H](O)CC[C@]4(C)[C@H]3CC[C@]12C [cholesterol] | – | We also developed an in vitro assay using cholesterol as a substrate. |
